Test results published in publication PMC11969009 (Nature Communications, 2025).
Several values for one entry are separate records, joined by “and”; a condition that tells them apart may be missing. Identical values can stand only once. Like-named read-outs stand apart in the source and are kept apart here.

Tests used:
[1] = test system: SARS-CoV-2 clinical isolate VIC001; experiment: microbe, parasite or virus in culture; type: cell-based; details: Severe acute respiratory syndrome coronavirus 2, Vero, read-out: Antiviral EC50 (plaque assay)
[2] = biological target: OTUD1 (Homo sapiens, UniProt Q5VV17); type: biochemical
Chain of OTUD1 (Q5VV17 whole entry): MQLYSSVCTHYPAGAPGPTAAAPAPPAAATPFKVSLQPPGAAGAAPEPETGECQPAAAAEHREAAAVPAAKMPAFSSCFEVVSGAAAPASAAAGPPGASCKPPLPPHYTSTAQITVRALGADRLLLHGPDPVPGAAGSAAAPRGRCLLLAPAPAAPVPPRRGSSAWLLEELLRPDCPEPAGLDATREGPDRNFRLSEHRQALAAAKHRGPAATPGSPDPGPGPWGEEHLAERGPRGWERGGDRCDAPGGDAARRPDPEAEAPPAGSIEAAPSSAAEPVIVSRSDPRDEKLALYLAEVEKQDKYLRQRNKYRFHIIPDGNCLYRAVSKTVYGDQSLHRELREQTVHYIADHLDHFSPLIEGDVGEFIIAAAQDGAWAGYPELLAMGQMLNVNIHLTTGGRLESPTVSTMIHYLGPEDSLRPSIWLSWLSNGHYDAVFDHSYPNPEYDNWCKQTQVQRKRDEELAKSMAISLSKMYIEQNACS

[3] = biological target: UCHL3 (Homo sapiens, UniProt P15374); type: biochemical
Chain of UCHL3 (P15374 whole entry): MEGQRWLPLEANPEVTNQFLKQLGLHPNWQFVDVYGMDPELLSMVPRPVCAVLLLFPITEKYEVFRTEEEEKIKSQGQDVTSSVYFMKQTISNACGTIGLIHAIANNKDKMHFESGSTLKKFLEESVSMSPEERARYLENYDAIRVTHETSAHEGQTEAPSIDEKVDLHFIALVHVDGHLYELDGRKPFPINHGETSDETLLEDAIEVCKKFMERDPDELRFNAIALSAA

[4] = biological target: USP10 (Homo sapiens, UniProt Q14694); type: biochemical
Chain of USP10 (Q14694 whole entry): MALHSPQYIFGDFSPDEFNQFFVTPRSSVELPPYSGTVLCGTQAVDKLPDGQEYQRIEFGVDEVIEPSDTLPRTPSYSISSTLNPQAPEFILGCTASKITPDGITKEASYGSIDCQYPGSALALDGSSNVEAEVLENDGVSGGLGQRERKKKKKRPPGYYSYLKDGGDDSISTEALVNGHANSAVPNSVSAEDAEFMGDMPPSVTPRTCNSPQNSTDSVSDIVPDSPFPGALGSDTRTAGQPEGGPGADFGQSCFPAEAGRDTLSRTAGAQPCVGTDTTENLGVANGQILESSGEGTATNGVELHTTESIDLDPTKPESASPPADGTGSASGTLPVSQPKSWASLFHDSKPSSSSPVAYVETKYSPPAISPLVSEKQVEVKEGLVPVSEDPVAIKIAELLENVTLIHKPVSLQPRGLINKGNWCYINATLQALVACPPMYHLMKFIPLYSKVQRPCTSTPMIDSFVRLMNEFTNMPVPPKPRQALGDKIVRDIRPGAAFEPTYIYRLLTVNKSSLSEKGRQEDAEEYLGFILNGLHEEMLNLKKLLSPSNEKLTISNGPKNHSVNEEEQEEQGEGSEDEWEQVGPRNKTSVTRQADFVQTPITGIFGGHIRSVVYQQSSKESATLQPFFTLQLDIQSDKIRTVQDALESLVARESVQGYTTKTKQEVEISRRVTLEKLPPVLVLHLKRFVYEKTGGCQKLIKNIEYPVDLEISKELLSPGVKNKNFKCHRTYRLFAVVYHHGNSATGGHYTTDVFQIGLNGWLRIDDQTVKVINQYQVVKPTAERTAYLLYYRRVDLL

[5] = biological target: T1, SARS-CoV-2 PLpro (Severe acute respiratory syndrome coronavirus 2, UniProt P0DTD1); experiment: biochemical; design: inhibition of SARS-CoV-2 PLpro, UbRh dose-response replicate value: unit: %; details: for IC50: IC50 (UbRh) SARS-CoV-2 PLpro
[6] = biological target: MERS-CoV PLpro (Middle East respiratory syndrome-related coronavirus, UniProt K9N7C7); type: biochemical; design: unit: %
Chain of MERS-CoV PLpro (K9N7C7 1482-1803 limits assumed): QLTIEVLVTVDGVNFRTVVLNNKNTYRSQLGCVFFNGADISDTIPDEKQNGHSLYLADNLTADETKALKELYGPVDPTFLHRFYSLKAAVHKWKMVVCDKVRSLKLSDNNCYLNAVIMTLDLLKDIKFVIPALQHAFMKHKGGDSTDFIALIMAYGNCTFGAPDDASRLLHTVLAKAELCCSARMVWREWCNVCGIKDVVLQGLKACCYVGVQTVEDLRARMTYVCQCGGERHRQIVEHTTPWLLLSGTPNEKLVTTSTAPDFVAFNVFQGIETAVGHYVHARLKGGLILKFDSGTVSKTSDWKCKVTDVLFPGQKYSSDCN

[7] = biological target: SARS-CoV PLpro (Severe acute respiratory syndrome coronavirus, UniProt P0C6X7); experiment: biochemical; design: inhibition of SARS-CoV PLpro, UbRh dose-response replicate value: unit: %
[8] = test system: panel of human DUBs (ATXN3, Cezanne, OTUD1, USP10, USP21, UCHL3); type: biochemical
[9] = biological target: T1, SARS-CoV-2 PLpro; experiment: cell-based; type: cell-based
[10] = biological target: T1, SARS-CoV-2 PLpro; experiment: biochemical; type: binding
[11] = biological target: USP21 (Homo sapiens, UniProt Q9UK80); type: biochemical
Chain of USP21 (Q9UK80 whole entry): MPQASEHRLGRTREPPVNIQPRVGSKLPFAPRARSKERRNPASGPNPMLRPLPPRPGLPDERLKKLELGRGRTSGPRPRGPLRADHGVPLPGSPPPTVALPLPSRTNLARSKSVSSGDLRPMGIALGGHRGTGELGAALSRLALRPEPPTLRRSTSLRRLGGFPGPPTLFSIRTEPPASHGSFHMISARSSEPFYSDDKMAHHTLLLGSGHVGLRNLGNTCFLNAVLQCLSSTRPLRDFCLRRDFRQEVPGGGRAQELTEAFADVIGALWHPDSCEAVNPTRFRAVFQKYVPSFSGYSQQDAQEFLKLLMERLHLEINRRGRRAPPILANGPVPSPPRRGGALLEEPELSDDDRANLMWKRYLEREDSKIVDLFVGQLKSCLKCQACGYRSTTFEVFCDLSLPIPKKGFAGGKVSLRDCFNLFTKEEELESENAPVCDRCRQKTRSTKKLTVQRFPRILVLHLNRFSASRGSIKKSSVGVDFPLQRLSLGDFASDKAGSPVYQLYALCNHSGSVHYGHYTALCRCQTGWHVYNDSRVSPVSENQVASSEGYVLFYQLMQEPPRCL

[12] = biological target: T1, SARS-CoV-2 PLpro
[13] = biological target: ATXN3 (Homo sapiens, UniProt P54252); type: biochemical
Chain of ATXN3 (P54252 whole entry): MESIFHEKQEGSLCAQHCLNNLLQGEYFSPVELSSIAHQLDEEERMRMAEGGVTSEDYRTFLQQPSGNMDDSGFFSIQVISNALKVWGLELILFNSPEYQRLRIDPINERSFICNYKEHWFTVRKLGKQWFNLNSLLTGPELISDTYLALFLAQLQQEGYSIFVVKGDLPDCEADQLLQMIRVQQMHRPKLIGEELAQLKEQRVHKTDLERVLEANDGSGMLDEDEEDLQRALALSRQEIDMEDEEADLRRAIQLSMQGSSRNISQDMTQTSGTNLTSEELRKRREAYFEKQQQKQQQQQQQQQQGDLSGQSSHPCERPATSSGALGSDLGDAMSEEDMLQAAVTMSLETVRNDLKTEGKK

[14] = biological target: Cezanne (Homo sapiens, UniProt Q6GQQ9); type: biochemical
Chain of Cezanne (Q6GQQ9 whole entry): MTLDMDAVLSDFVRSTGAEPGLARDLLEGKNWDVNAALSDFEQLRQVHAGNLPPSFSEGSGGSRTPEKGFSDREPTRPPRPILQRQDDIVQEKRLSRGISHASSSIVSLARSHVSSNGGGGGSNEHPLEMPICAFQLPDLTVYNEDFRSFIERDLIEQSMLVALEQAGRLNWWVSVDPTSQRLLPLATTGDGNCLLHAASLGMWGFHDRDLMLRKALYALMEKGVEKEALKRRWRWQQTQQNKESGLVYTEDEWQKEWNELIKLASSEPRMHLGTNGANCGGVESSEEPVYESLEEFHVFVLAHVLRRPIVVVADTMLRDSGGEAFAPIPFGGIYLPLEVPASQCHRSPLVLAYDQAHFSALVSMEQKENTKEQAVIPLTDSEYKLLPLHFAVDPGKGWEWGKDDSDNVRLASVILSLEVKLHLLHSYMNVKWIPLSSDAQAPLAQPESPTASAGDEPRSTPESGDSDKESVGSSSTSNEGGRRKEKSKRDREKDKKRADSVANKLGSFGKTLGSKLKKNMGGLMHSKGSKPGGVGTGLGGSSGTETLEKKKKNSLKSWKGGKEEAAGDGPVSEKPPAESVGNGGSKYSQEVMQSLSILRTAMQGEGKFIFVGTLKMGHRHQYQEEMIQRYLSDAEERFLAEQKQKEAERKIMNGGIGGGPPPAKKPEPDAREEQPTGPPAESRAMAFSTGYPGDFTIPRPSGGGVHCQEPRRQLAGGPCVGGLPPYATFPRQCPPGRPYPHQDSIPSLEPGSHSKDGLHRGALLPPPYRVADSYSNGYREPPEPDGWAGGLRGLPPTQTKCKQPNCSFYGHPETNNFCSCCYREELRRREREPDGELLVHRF

Structure (SMILES): COc1ccc2cc(C(=O)C3CCCN(C4CCCC4)C3)ccc2c1 (centres unmarked) [WEHI-P1]
- EC50 [1]: > 2000 nM
- inhibition of OTUD1, UbRh dose-response replicate value [2]: -10.6037 and -11.2887 and -9.792 and -7.833 and -12.7647 and -0.9075 and 2.163 and -5.7654 and -7.285 and -0.8912 and -5.258 and -7.97 and -1.274 and -2.017 and -4.922 and 1.155 and -8.198 and 3.097 and -7.799 and -6.802
- inhibition of OTUD1, UbRh dose-response replicate value ([2]; Conc 0.00498 µM): -2.098 and -3.857
- inhibition of OTUD1, UbRh dose-response replicate value ([2]; Conc 0.0149 µM): 0.5359 and 5.168 and -4.672 and 0.608
- inhibition of OTUD1, UbRh dose-response replicate value ([2]; Conc 0.0448 µM): 0.07106 and -1.381 and -0.3944 and -8.021
- inhibition of OTUD1, UbRh dose-response replicate value ([2]; Conc 3.63 µM): -3.7862 and -2.718 and -1.038 and -8.072
- inhibition of OTUD1, UbRh dose-response replicate value ([2]; Conc 98 µM): -27.4599 and -27.4028
- inhibition of UCHL3, UbRh dose-response replicate value [3]: -15.7962 and -10.6437 and -3.089 and -8.07 and -1.79 and -9.314 and -4.512 and -11.432 and -8.325 and -0.3429 and -5.346 and 2.661 and -3.761 and -0.9211 and -0.1651 and 0.1836 and -9.635 and -0.5542 and -7.392
- inhibition of UCHL3, UbRh dose-response replicate value ([3]; Conc 0.00498 µM): -2.717 and -5.843 and -1.232 and -3.133
- inhibition of UCHL3, UbRh dose-response replicate value ([3]; Conc 0.0149 µM): -3.556 and -7.101 and -2.8889 and -5.9018
- inhibition of UCHL3, UbRh dose-response replicate value ([3]; Conc 0.0448 µM): -13.5671 and -9.936 and 2.559 and -5.235
- inhibition of UCHL3, UbRh dose-response replicate value ([3]; Conc 3.63 µM): -2.824 and -12.2743 and -7.514 and -7.892
- inhibition of UCHL3, UbRh dose-response replicate value ([3]; Conc 98 µM): -24.2494 and -16.3148 and -12.8948 and -13.0616
- inhibition of USP10, UbRh dose-response replicate value [4]: -17.9764 and -33.546 and -1.777 and -1.005 and -2.268 and -5.196 and 1.437 and 7.331 and 6.946 and -2.385 and 10.5944 and 12.4488 and -3.943 and -14.76 and 8.848 and 13.2594 and -3.1801
- inhibition of USP10, UbRh dose-response replicate value ([4]; Conc 0.00498 µM): 10.1443 and 12.7446 and 2.857 and 1.607
- inhibition of USP10, UbRh dose-response replicate value ([4]; Conc 0.0149 µM): 1.87 and 11.8374 and 1.723 and 2.761
- inhibition of USP10, UbRh dose-response replicate value ([4]; Conc 0.0448 µM): 5.874 and 6.2633 and -3.914
- inhibition of USP10, UbRh dose-response replicate value ([4]; Conc 3.63 µM): -1.745 and -4.256 and -2.239 and 0.7005
- inhibition of USP10, UbRh dose-response replicate value ([4]; Conc 98 µM): -22.6046 and 5.737 and 3.4
- inhibition of SARS-CoV-2 PLpro, UbRh dose-response replicate value ([5]; Conc 0.00498 µM): -13.6732 and 2.3131 and -7.154 and -11.0795 and 7.963 and 4.4501 and -10.0607 and -6.545 and -6.343 and -0.9072 and -6.992 and -7.263 and -7.665
- inhibition of SARS-CoV-2 PLpro, UbRh dose-response replicate value ([5]; Conc 0.0149 µM): -0.6879 and 3.256 and -8.137 and -12.3628 and 2.155 and 5.8571 and -3.891 and -5.469 and -7.734 and -5.926 and -7.3449
- inhibition of SARS-CoV-2 PLpro, UbRh dose-response replicate value ([5]; Conc 0.0448 µM): 1.291 and 3.348 and -5.506 and -4.578 and 2.528 and 6.172 and -28.1035 and -26.7808 and -16.0105 and -8.021 and -5.978 and -3.428 and -7.448
- inhibition of SARS-CoV-2 PLpro, UbRh dose-response replicate value ([5]; Conc 3.63 µM): 55.1403 and 49.1297 and 72.2398 and 55.1118 and 68.8818 and 68.3038 and 70.3435 and 68.1584 and 58.3924 and 61.1283 and 62.8891 and 58.2582 and 68.987
- inhibition of SARS-CoV-2 PLpro, UbRh dose-response replicate value ([5]; Conc 98 µM): 124.948 and 118.973 and 118.719 and 93.4483 and 92.6536 and 95.3254 and 94.6236 and 97.9546 and 83.9689 and 107.904 and 110.814 and 103.242 and 108.864
- IC50 [5]: 2600 nM
- IC50 ([5]; Supplementary Fig. 2b): 2600 nM
- inhibition of MERS-CoV PLpro, UbRh dose-response replicate value ([6]; Conc 0.00498 µM): -4.614 and -3.364 and 0.3636 and -5.453 and 6.667 and 6.005 and 3.997 and 2.909
- inhibition of MERS-CoV PLpro, UbRh dose-response replicate value ([6]; Conc 0.0149 µM): -3.576 and -5.738 and -4.053 and -6.88 and 8.95 and 6.88 and 9.641 and 2.2309
- inhibition of MERS-CoV PLpro, UbRh dose-response replicate value ([6]; Conc 0.0448 µM): -7.082 and -11.2097 and -12.434 and -8.665 and 6.324 and 5.9119 and 5.395 and 2.288
- inhibition of MERS-CoV PLpro, UbRh dose-response replicate value ([6]; Conc 3.63 µM): -1.223 and -11.7007 and -12.14 and -8.237 and 5.5159 and 6.719
- inhibition of MERS-CoV PLpro, UbRh dose-response replicate value ([6]; Conc 98 µM): -14.4158 and -18.412 and -13.4114 and -9.9342 and 9.6505 and 10.1326 and 6.766 and 4.38
- inhibition of SARS-CoV PLpro, UbRh dose-response replicate value ([7]; Conc 3.63 µM): 43.26 and 41.4233 and 40.1519 and 56.4827 and 56.7648 and 53.2219
- inhibition at 3.63 µM ([7]; Conc 3.63 µM, read-out: inhibition of SARS-CoV PLpro, UbRh dose-response replicate value): 43.3%
- inhibition of SARS-CoV PLpro, UbRh dose-response replicate value ([7]; Conc 98 µM): 89.3568 and 87.1144 and 87.3043 and 96.6611 and 96.2974 and 95.7026 and 96.1294
- inhibition at 98 µM ([7]; Conc 98 µM, read-out: inhibition of SARS-CoV PLpro, UbRh dose-response replicate value): 89.2%
- inhibition at […] ([7]; read-out: inhibition of SARS-CoV PLpro, UbRh dose-response replicate value): 84.6% and 69.7%
- cross-reactivity in a panel of human DUBs [8]: no cross-reactivity
- EC50 [9]: > 20000 nM
- Kd [10]: 8300 nM
- inhibition of USP21, UbRh dose-response replicate value [11]: -17.3591 and -12.2032 and -18.6472 and -15.4853 and -14.4522 and -19.2052 and -17.9515 and -18.065 and -8.946 and -2.6161 and -10.7527 and -20.9333 and -7.844 and -9.819 and -13.8068 and -21.9255 and -4.154 and -2.302 and -19.2663 and -19.4961
- inhibition of USP21, UbRh dose-response replicate value ([11]; Conc 0.00498 µM): -6.669 and -13.4551 and -20.5516 and -18.4137
- inhibition of USP21, UbRh dose-response replicate value ([11]; Conc 0.0149 µM): -7.696 and -8.6697 and -11.755 and -9.346
- inhibition of USP21, UbRh dose-response replicate value ([11]; Conc 0.0448 µM): -2.649 and -22.6918 and -12.9296
- inhibition of USP21, UbRh dose-response replicate value ([11]; Conc 3.63 µM): -16.692 and -5.223 and -23.134 and -16.0626
- inhibition of USP21, UbRh dose-response replicate value ([11]; Conc 98 µM): -13.9863 and -21.5031 and -20.8818 and -12.5688
- Molar Mass (kDa) [12]: 32.7945 kDa and 33.2145 kDa and 33.2745 kDa
- observed molar mass of PLpro (SEC-MALS) [12]: 34.9 kDa
- inhibition of ATXN3, UbRh dose-response replicate value [13]: -8.641 and -11.1993 and -4.869 and 4.344 and -19.3823 and -18.001 and -0.7368 and -2.308 and -5.209 and -10.7506 and -7.279 and -8.7353 and -8.48 and -12.1184 and -9.5356 and 0.5603 and -15.7867 and -11.4036 and -7.524
- inhibition of ATXN3, UbRh dose-response replicate value ([13]; Conc 0.00498 µM): -12.0566 and -16.4021 and -4.426 and -13.5708
- inhibition of ATXN3, UbRh dose-response replicate value ([13]; Conc 0.0149 µM): -11.0193 and -9.528 and -12.1815 and -14.805
- inhibition of ATXN3, UbRh dose-response replicate value ([13]; Conc 0.0448 µM): -8.047 and -9.745 and -7.569 and -8.486
- inhibition of ATXN3, UbRh dose-response replicate value ([13]; Conc 3.63 µM): -16.703 and -12.2662 and -13.9462 and -9.635
- inhibition of ATXN3, UbRh dose-response replicate value ([13]; Conc 98 µM): -16.0742 and -15.5502
- inhibition of Cezanne, UbRh dose-response replicate value [14]: -18.912 and -15.6278 and -2.351 and 1.9841 and -10.3668 and -26.3356 and -4.177 and -7.241 and -8.329 and -15.5113 and -9.927 and -0.3728 and -12.3899 and 0.2487 and -4.422 and -3.858 and -10.5494 and -3.083 and 1.0161 and -4.6404
- inhibition of Cezanne, UbRh dose-response replicate value ([14]; Conc 0.00498 µM): -5.218 and -11.645 and -1.408 and -0.02766
- inhibition of Cezanne, UbRh dose-response replicate value ([14]; Conc 0.0149 µM): -1.15 and -11.2131 and -3.066 and -2.486
- inhibition of Cezanne, UbRh dose-response replicate value ([14]; Conc 0.0448 µM): -8.614 and -15.6484 and -3.285 and 0.7467
- inhibition of Cezanne, UbRh dose-response replicate value ([14]; Conc 3.63 µM): -15.9321 and -15.0246 and -5.238 and -9.8
- inhibition of Cezanne, UbRh dose-response replicate value ([14]; Conc 98 µM): -30.6124 and -29.2216 and 3.466 and 11.4705
